Experimental data taken from ChEMBL document CHEMBL5620350, “Recent advances in the development of dual ALK/ROS1 inhibitors for non-small cell lung cancer therapy” (Eur J Med Chem, 2023).

Columns and labels:
[1] = system: BaF3; assay: Antitumor activity against mouse BaF3 cells harboring wild type ROS1 assessed as tumor growth inhibition at 2.2 nM; format: functional; set-up: scale not given: the % may be the effect or the level left
[2] = system: BaF3; assay: Antitumor activity against mouse BaF3 cells harboring EML4 ALK V1 G1202R mutant assessed as tumor growth inhibition at 2.2 nM; format: functional; set-up: scale not given: the % may be the effect or the level left
[3] = system: BaF3; assay: Antitumor activity against mouse BaF3 cells harboring ROS1 G2032 mutant assessed as tumor growth inhibition at 2.2 nM; format: functional; set-up: scale not given: the % may be the effect or the level left
[4] = Inhibition of human […] G1202R mutant using Casein as substrate incubated for 120 mins in presence of [gamma-33P]-ATP
[5] = molecular target: T1, TGF-beta receptor type-1 (Homo sapiens, UniProt P36897); assay: Inhibition of human […] using Casein as substrate incubated for 120 mins in presence of [gamma-33P]-ATP
T1 sequence (P36897 whole entry): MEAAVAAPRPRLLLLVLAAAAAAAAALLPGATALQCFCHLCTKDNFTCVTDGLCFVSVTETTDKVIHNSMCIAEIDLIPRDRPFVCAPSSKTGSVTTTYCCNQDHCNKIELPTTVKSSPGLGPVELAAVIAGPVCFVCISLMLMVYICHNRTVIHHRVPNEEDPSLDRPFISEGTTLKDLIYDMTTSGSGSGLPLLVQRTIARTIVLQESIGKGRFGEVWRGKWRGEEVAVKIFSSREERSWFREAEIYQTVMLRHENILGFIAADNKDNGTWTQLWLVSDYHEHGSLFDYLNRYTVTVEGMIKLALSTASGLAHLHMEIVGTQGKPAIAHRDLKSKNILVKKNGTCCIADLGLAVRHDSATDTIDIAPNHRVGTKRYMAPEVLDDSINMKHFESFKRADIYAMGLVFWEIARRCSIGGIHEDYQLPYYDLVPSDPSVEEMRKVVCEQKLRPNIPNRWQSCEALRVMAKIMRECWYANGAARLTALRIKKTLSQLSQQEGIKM

[6] = molecular target: T2, Proto-oncogene tyrosine-protein kinase ROS (Homo sapiens, UniProt P08922); assay: Inhibition of human ROS1 using KKKSPGEYVNIEFG as substrate incubated for 120 mins in presence of [gamma-33P]-ATP
T2 sequence (P08922 whole entry): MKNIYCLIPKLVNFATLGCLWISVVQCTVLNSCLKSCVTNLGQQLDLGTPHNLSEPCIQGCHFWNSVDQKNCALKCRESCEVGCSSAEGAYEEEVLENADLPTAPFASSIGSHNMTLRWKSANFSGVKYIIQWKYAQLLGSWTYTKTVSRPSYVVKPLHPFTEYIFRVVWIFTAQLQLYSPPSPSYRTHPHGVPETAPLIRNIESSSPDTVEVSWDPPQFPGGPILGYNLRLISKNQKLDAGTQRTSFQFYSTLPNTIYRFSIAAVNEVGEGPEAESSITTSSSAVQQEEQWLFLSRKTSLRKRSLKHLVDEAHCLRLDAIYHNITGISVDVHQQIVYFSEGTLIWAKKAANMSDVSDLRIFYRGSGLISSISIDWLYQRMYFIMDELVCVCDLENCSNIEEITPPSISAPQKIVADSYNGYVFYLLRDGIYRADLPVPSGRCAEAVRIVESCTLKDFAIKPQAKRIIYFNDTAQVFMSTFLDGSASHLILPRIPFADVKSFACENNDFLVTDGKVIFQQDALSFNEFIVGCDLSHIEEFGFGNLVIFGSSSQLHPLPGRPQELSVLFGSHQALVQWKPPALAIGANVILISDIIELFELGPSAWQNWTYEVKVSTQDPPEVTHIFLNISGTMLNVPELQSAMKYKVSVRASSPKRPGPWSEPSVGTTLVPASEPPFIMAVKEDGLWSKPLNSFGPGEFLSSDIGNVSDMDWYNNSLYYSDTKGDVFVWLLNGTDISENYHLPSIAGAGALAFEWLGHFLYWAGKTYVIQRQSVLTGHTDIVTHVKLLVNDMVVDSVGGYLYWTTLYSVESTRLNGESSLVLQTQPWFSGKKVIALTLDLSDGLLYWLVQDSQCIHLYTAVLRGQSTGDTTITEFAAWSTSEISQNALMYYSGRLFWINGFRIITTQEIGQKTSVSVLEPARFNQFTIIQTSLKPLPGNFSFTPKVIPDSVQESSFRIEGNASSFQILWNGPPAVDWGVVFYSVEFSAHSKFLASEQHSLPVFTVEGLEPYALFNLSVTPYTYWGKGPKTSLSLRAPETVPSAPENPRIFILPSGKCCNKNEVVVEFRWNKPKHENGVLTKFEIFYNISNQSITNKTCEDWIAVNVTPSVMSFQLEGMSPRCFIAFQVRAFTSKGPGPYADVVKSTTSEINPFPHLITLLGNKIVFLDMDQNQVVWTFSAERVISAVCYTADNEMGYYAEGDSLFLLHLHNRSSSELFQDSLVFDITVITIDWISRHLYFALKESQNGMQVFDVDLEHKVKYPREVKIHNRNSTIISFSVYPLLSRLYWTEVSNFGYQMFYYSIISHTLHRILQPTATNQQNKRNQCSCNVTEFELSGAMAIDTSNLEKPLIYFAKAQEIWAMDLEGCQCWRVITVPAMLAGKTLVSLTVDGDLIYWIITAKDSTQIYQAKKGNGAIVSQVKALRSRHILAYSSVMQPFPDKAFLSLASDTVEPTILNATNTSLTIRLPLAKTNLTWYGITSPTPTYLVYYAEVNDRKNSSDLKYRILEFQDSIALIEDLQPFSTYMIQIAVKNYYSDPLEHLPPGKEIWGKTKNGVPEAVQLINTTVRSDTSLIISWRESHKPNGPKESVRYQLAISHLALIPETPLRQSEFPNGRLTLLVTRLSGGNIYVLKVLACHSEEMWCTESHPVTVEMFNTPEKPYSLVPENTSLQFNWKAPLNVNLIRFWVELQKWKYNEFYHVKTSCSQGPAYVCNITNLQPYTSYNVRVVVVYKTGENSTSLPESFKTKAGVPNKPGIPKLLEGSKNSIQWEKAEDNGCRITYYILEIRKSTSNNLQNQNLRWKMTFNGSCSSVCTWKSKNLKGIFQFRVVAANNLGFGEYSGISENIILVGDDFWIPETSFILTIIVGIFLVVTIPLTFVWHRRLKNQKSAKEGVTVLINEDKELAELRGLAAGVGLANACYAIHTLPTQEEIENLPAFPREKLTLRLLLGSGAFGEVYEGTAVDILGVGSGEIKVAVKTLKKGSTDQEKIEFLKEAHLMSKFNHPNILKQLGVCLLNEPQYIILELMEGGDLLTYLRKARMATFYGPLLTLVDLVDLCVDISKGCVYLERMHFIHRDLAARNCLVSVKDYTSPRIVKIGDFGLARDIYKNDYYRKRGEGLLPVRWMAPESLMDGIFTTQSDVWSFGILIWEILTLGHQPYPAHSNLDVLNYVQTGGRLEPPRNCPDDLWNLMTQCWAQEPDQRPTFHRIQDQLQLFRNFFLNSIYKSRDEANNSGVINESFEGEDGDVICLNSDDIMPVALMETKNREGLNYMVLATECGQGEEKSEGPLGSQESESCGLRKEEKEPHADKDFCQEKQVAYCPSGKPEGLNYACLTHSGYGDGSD

[7] = molecular target: T3, Proto-oncogene tyrosine-protein kinase ROS (Homo sapiens, UniProt P08922, G2032R); assay: Inhibition of human ROS1 G2032R mutant using KKKSPGEYVNIEFG as substrate incubated for 120 mins in presence of [gamma-33P]-ATP
T3 sequence (P08922 28-2347 G2032R limits assumed): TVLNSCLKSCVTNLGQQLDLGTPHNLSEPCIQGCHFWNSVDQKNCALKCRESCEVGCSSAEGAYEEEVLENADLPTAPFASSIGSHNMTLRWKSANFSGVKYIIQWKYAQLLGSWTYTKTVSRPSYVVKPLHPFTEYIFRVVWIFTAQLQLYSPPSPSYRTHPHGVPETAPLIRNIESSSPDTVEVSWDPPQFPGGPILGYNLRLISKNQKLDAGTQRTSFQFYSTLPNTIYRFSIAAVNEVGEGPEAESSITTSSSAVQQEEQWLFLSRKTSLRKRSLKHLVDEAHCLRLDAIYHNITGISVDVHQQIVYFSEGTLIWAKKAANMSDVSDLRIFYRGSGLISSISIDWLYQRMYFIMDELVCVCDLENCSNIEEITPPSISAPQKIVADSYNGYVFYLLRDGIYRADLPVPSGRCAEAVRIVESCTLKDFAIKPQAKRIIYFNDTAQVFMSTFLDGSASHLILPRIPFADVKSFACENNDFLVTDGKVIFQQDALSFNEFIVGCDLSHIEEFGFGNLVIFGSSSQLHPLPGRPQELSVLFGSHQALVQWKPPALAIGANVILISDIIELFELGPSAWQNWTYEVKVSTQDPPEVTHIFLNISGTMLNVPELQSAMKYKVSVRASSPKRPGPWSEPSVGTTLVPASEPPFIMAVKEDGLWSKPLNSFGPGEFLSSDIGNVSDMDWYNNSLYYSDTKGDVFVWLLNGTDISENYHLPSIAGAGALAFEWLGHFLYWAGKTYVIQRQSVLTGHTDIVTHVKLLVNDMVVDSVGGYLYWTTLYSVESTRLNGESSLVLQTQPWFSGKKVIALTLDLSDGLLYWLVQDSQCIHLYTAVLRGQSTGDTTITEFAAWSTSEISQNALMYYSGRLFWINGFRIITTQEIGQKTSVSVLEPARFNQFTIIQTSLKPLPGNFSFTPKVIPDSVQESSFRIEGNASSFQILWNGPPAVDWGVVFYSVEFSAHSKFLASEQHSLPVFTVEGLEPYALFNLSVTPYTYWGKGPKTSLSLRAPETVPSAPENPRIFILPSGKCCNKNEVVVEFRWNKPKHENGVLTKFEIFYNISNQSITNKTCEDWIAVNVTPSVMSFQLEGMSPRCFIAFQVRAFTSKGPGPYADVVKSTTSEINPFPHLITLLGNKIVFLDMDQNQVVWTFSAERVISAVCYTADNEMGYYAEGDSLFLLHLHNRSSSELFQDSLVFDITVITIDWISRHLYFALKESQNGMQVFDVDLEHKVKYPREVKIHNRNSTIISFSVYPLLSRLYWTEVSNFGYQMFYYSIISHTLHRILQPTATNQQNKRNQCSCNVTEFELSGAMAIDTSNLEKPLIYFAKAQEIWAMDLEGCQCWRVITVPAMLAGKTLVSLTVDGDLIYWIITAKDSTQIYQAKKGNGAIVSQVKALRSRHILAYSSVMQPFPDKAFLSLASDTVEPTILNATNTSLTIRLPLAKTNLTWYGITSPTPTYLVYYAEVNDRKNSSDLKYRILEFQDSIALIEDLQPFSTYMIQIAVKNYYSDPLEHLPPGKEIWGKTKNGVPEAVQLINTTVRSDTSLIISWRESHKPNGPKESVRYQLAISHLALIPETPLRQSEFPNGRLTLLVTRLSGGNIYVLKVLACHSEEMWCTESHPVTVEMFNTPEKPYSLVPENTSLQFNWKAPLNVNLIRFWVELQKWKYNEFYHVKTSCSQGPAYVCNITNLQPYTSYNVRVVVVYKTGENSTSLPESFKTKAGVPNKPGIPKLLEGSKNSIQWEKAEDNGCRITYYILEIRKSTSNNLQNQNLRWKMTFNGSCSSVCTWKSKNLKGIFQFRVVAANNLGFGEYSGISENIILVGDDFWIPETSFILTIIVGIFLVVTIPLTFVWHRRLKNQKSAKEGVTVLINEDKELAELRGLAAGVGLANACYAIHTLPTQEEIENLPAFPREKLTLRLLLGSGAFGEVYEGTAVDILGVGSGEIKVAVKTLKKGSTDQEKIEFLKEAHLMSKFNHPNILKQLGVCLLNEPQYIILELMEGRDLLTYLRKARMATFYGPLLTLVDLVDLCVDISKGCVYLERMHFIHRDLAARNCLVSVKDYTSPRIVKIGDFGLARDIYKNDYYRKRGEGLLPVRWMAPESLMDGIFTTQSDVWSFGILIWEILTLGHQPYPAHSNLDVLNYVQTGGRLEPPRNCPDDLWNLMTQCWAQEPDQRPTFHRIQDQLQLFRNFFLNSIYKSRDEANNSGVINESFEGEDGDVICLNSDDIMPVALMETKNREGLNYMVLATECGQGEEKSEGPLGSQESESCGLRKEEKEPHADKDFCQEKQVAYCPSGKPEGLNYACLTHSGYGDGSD

[8] = molecular target: T4, ALK tyrosine kinase receptor (Homo sapiens, UniProt Q9UM73); assay: Inhibition of wild-type ALK (unknown origin)
[9] = system: NCI-H2228; assay: Cytotoxicity against human NCI-H2228 cells incubated for 72 hrs by MTT assay; format: functional, cell-based; conditions: NCI-H2228, 72 h
[10] = system: HCC78; assay: Cytotoxicity against human HCC78 cells incubated for 72 hrs by MTT assay; format: functional, cell-based
[11] = molecular target: T2, Proto-oncogene tyrosine-protein kinase ROS; assay: Inhibition of recombinant human ROS1 preincubated for 5 to 10 mins followed by substrate and ATP addition and measured after 60 mins by TR-FRET assay
[12] = molecular target: T4, ALK tyrosine kinase receptor; assay: Inhibition of human ALK preincubated for 5 to 10 mins followed by substrate and ATP addition and measured after 60 mins by TR-FRET assay
[13] = molecular target: ALK tyrosine kinase receptor (Homo sapiens, UniProt Q9UM73, G1202R/L1196M); assay: Inhibition of human ALK L1196M/G1202R double mutant preincubated for 5 to 10 mins followed by substrate and ATP addition and measured after 60 mins by TR-FRET assay
[14] = molecular target: T3, Proto-oncogene tyrosine-protein kinase ROS; assay: Inhibition of recombinant human ROS1 G2032R mutant preincubated for 5 to 10 mins followed by substrate and ATP addition and measured after 60 mins by TR-FRET assay
[15] = molecular target: T2, Proto-oncogene tyrosine-protein kinase ROS; assay: Inhibition of wild type ROS1 (unknown origin) expressed in BaF3 cells incubated for 4 hrs; format: cell-based
[16] = molecular target: T4, ALK tyrosine kinase receptor; assay: Inhibition of wild type ALK (unknown origin) expressed in BaF3 cells incubated for 4 hrs; format: cell-based
[17] = molecular target: T4, ALK tyrosine kinase receptor; assay: Inhibition of ALK (unknown origin) incubated for 1 hr by HTRF assay
[18] = molecular target: T2, Proto-oncogene tyrosine-protein kinase ROS; assay: Inhibition of ROS1 (unknown origin) incubated for 1 hr by HTRF assay

## C[C@H]1CNC(=O)c2cnn3ccc(nc23)N[C@H](C)c2cc(F)ccc2O1 [REPOTRECTINIB]
[1]
  Activity: 197%
[2]
  Activity: 99%
[3]
  Activity: 99%

## CCOc1ccc(F)cc1[C@@H](C)Nc1ccn2ncc(C3=NOC(C)N3)c2n1 (some centres not stated)
[4]
  IC50: < 50 nM
[5]
  IC50: < 50 nM
[6]
  IC50: < 0.5 nM
[7]
  IC50: < 0.5 nM

## O=C(Nc1n[nH]c2ncc(S(=O)(=O)c3cccc(F)c3)cc12)c1ccc(N2CCOCC2)cc1
[8]
  IC50: 0.6 nM

## CC(C)Oc1ccc(F)cc1[C@@H](C)Nc1ccn2ncc(C3=NOC(C)N3)c2n1 (some centres not stated)
[4]
  IC50: < 50 nM
[5]
  IC50: < 50 nM
[6]
  IC50: < 0.5 nM
[7]
  IC50: < 0.5 nM

## COc1ccc(CNC(=O)Cn2nc(-c3ccccc3)c3cnc4ccccc4c32)cc1
[9]
  IC50: 2710 nM
[10]; Homo sapiens, HCC78, 72 h
  IC50: 1620 nM
[10]; hcc78
  IC50: 1610 nM

## C[C@H]1Nc2ccn3ncc(c3n2)C(=O)N[C@@]2(C)CC3=CC(F)=CC1C3O2 (some centres not stated)
[11]
  IC50: 0.84 nM
[12]
  IC50: 2.02 nM
[13]
  IC50: 20.7 nM
[14]
  IC50: 0.34 nM

## C[C@H]1Nc2ccn3ncc(c3n2)C(=O)NC[C@@H](CF)Oc2ccc(F)cc21
[15]
  IC50: 2 nM
[16]
  IC50: 2 nM

## COc1cc(-n2cccc2CN2CCN(C)CC2)ccc1Nc1ncc(Cl)c(Nc2ccccc2NS(C)(=O)=O)n1
[17]
  IC50: 1.8 nM
[18]
  IC50: 3.6 nM

## COc1ccc(F)cc1[C@@H](C)Nc1ccn2ncc(C3=NOC(C)(C)N3)c2n1
[4]
  IC50: < 50 nM
[5]
  IC50: < 50 nM
[6]
  IC50: < 0.5 nM
[7]
  IC50: < 0.5 nM
